In the supplement of paper PMC10307832:

Assays:
Experiment in all cases: relative viability (nuclei count vs DMSO), 5 days (fraction); higher = more cells survive
KN-93 + Trametinib = compound: CN(C/C=C/C1=CC=C(C=C1)Cl)CC2=CC=CC=C2N(CCO)S(=O)(=O)C3=CC=C(C=C3)OC [KN-93] + CC(=O)Nc1cccc(-n2c(=O)n(C3CC3)c(=O)c3c(Nc4ccc(I)cc4F)n(C)c(=O)c(C)c32)c1 [Trametinib] (partner 0.02 µM)
How it was run: (§1)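 Lung cancer cell lines, seeded in 1536-well plates, were treated the following day by pin tool with a single drug or with five library-drug doses (not always all listed) in √10 steps on top of a fixed anchor-drug dose. Cells were fixed and nuclei stained in one step after 5 days, and nuclei were counted. Relative viability is the nuclei count for treated wells divided by that for vehicle wells, reported as medians of duplicate plates.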

KN-93 + Palbociclib = compound: CN(C/C=C/C1=CC=C(C=C1)Cl)CC2=CC=CC=C2N(CCO)S(=O)(=O)C3=CC=C(C=C3)OC [KN-93] + CC(=O)c1c(C)c2cnc(Nc3ccc(N4CCNCC4)cn3)nc2n(C2CCCC2)c1=O [Palbociclib] (partner 0.5 µM)
How it was run: as §1

KN-93 + Tozasertib = compound: CN(C/C=C/C1=CC=C(C=C1)Cl)CC2=CC=CC=C2N(CCO)S(=O)(=O)C3=CC=C(C=C3)OC [KN-93] + Cc1cc(Nc2cc(N3CCN(C)CC3)nc(Sc3ccc(NC(=O)C4CC4)cc3)n2)n[nH]1 [Tozasertib] (partner 0.1 µM)
How it was run: as §1

KN-93 + Dasatinib = compound: CN(C/C=C/C1=CC=C(C=C1)Cl)CC2=CC=CC=C2N(CCO)S(=O)(=O)C3=CC=C(C=C3)OC [KN-93] + Cc1nc(Nc2ncc(C(=O)Nc3c(C)cccc3Cl)s2)cc(N2CCN(CCO)CC2)n1 [Dasatinib] (partner 0.075 µM)
How it was run: as §1

KN-93 + AZD7762 = compound: CN(C/C=C/C1=CC=C(C=C1)Cl)CC2=CC=CC=C2N(CCO)S(=O)(=O)C3=CC=C(C=C3)OC [KN-93] + NC(=O)Nc1cc(-c2cccc(F)c2)sc1C(=O)N[C@H]1CCCNC1 [AZD7762] (partner 0.2 µM)
How it was run: as §1

NCI-H2405 was tested, and the relative viability (KN-93 + Trametinib; first compound 0.08 µM) was 0.603, the relative viability (KN-93 + Trametinib; first compound 0.253 µM) was 0.598 and the relative viability (KN-93 + Trametinib; first compound 2.53 µM) was 0.665. The relative viability (KN-93 + Trametinib; first compound 8 µM) was 0.491, the relative viability (KN-93 + Palbociclib; first compound 0.08 µM) was 0.561 and the relative viability (KN-93 + Palbociclib; first compound 0.253 µM) was 0.594. The relative viability (KN-93 + Palbociclib; first compound 2.53 µM) was 0.547, the relative viability (KN-93 + Palbociclib; first compound 8 µM) was 0.471 and the relative viability (KN-93 + Tozasertib; first compound 0.08 µM) was 0.799. It also gave a relative viability (KN-93 + Tozasertib; first compound 0.253 µM) of 0.776, a relative viability (KN-93 + Tozasertib; first compound 2.53 µM) of 0.733 and a relative viability (KN-93 + Tozasertib; first compound 8 µM) of 0.533. The relative viability (KN-93 + Dasatinib; first compound 0.08 µM) was 0.222, the relative viability (KN-93 + Dasatinib; first compound 0.253 µM) was 0.238 and the relative viability (KN-93 + Dasatinib; first compound 2.53 µM) was 0.491. It also gave a relative viability (KN-93 + Dasatinib; first compound 8 µM) of 0.204, a relative viability (KN-93 + AZD7762; first compound 0.08 µM) of 0.735 and a relative viability (KN-93 + AZD7762; first compound 0.253 µM) of 0.859. It also gave a relative viability (KN-93 + AZD7762; first compound 2.53 µM) of 0.806 and a relative viability (KN-93 + AZD7762; first compound 8 µM) of 0.555.

EPLC-272H showed a relative viability (KN-93 + Trametinib; first compound 0.08 µM) of 0.289, a relative viability (KN-93 + Trametinib; first compound 0.253 µM) of 0.279 and a relative viability (KN-93 + Trametinib; first compound 2.53 µM) of 0.283. It also gave a relative viability (KN-93 + Trametinib; first compound 8 µM) of 0.23, a relative viability (KN-93 + Palbociclib; first compound 0.08 µM) of 0.321 and a relative viability (KN-93 + Palbociclib; first compound 0.253 µM) of 0.279. The relative viability (KN-93 + Palbociclib; first compound 2.53 µM) was 0.354, the relative viability (KN-93 + Palbociclib; first compound 8 µM) was 0.346 and the relative viability (KN-93 + Tozasertib; first compound 0.08 µM) was 0.234. The relative viability (KN-93 + Tozasertib; first compound 0.253 µM) was 0.213, the relative viability (KN-93 + Tozasertib; first compound 2.53 µM) was 0.317 and the relative viability (KN-93 + Tozasertib; first compound 8 µM) was 0.227. It also gave a relative viability (KN-93 + Dasatinib; first compound 0.08 µM) of 0.32, a relative viability (KN-93 + Dasatinib; first compound 0.253 µM) of 0.452 and a relative viability (KN-93 + Dasatinib; first compound 2.53 µM) of 0.274. The relative viability (KN-93 + Dasatinib; first compound 8 µM) was 0.206, the relative viability (KN-93 + AZD7762; first compound 0.08 µM) was 0.195 and the relative viability (KN-93 + AZD7762; first compound 0.253 µM) was 0.2. For the same cell line, the relative viability (KN-93 + AZD7762; first compound 2.53 µM) was 0.527 and the relative viability (KN-93 + AZD7762; first compound 8 µM) was 0.347.

For HCC-366, the relative viability (KN-93 + Trametinib; first compound 0.08 µM) was 0.258, the relative viability (KN-93 + Trametinib; first compound 0.253 µM) was 0.305 and the relative viability (KN-93 + Trametinib; first compound 2.53 µM) was 0.336. For the same cell line, the relative viability (KN-93 + Trametinib; first compound 8 µM) was 0.162, the relative viability (KN-93 + Palbociclib; first compound 0.08 µM) was 0.407 and the relative viability (KN-93 + Palbociclib; first compound 0.253 µM) was 0.531. It also gave a relative viability (KN-93 + Palbociclib; first compound 2.53 µM) of 0.563, a relative viability (KN-93 + Palbociclib; first compound 8 µM) of 0.221 and a relative viability (KN-93 + Tozasertib; first compound 0.08 µM) of 0.0849. It also gave a relative viability (KN-93 + Tozasertib; first compound 0.253 µM) of 0.0834, a relative viability (KN-93 + Tozasertib; first compound 2.53 µM) of 0.111 and a relative viability (KN-93 + Tozasertib; first compound 8 µM) of 0.0411. For the same cell line, the relative viability (KN-93 + Dasatinib; first compound 0.08 µM) was 0.513, the relative viability (KN-93 + Dasatinib; first compound 0.253 µM) was 0.562 and the relative viability (KN-93 + Dasatinib; first compound 2.53 µM) was 0.737. For the same cell line, the relative viability (KN-93 + Dasatinib; first compound 8 µM) was 0.223, the relative viability (KN-93 + AZD7762; first compound 0.08 µM) was 0.269 and the relative viability (KN-93 + AZD7762; first compound 0.253 µM) was 0.221. It also gave a relative viability (KN-93 + AZD7762; first compound 2.53 µM) of 0.286 and a relative viability (KN-93 + AZD7762; first compound 8 µM) of 0.0943.

NCI-H838 was tested, and the relative viability (KN-93 + Trametinib; first compound 0.08 µM) was 0.563, the relative viability (KN-93 + Trametinib; first compound 0.253 µM) was 0.482 and the relative viability (KN-93 + Trametinib; first compound 2.53 µM) was 0.522. For the same cell line, the relative viability (KN-93 + Trametinib; first compound 8 µM) was 0.509, the relative viability (KN-93 + Palbociclib; first compound 0.08 µM) was 0.222 and the relative viability (KN-93 + Palbociclib; first compound 0.253 µM) was 0.182. The relative viability (KN-93 + Palbociclib; first compound 2.53 µM) was 0.216, the relative viability (KN-93 + Palbociclib; first compound 8 µM) was 0.212 and the relative viability (KN-93 + Tozasertib; first compound 0.08 µM) was 0.256. For the same cell line, the relative viability (KN-93 + Tozasertib; first compound 0.253 µM) was 0.257, the relative viability (KN-93 + Tozasertib; first compound 2.53 µM) was 0.252 and the relative viability (KN-93 + Tozasertib; first compound 8 µM) was 0.235. It also gave a relative viability (KN-93 + Dasatinib; first compound 0.08 µM) of 0.32, a relative viability (KN-93 + Dasatinib; first compound 0.253 µM) of 0.236 and a relative viability (KN-93 + Dasatinib; first compound 2.53 µM) of 0.334. For the same cell line, the relative viability (KN-93 + Dasatinib; first compound 8 µM) was 0.239, the relative viability (KN-93 + AZD7762; first compound 0.08 µM) was 0.842 and the relative viability (KN-93 + AZD7762; first compound 0.253 µM) was 0.884. For the same cell line, the relative viability (KN-93 + AZD7762; first compound 2.53 µM) was 0.992 and the relative viability (KN-93 + AZD7762; first compound 8 µM) was 0.831.

LU99A gave a relative viability (KN-93 + Trametinib; first compound 0.08 µM) of 0.603, a relative viability (KN-93 + Trametinib; first compound 0.253 µM) of 0.626 and a relative viability (KN-93 + Trametinib; first compound 2.53 µM) of 0.496. The relative viability (KN-93 + Trametinib; first compound 8 µM) was 0.431, the relative viability (KN-93 + Palbociclib; first compound 0.08 µM) was 0.455 and the relative viability (KN-93 + Palbociclib; first compound 0.253 µM) was 0.457. For the same cell line, the relative viability (KN-93 + Palbociclib; first compound 2.53 µM) was 0.397, the relative viability (KN-93 + Palbociclib; first compound 8 µM) was 0.371 and the relative viability (KN-93 + Tozasertib; first compound 0.08 µM) was 0.239. For the same cell line, the relative viability (KN-93 + Tozasertib; first compound 0.253 µM) was 0.287, the relative viability (KN-93 + Tozasertib; first compound 2.53 µM) was 0.246 and the relative viability (KN-93 + Tozasertib; first compound 8 µM) was 0.212. It also gave a relative viability (KN-93 + Dasatinib; first compound 0.08 µM) of 0.479, a relative viability (KN-93 + Dasatinib; first compound 0.253 µM) of 0.59 and a relative viability (KN-93 + Dasatinib; first compound 2.53 µM) of 0.419. For the same cell line, the relative viability (KN-93 + Dasatinib; first compound 8 µM) was 0.406, the relative viability (KN-93 + AZD7762; first compound 0.08 µM) was 0.31 and the relative viability (KN-93 + AZD7762; first compound 0.253 µM) was 0.323. It also gave a relative viability (KN-93 + AZD7762; first compound 2.53 µM) of 0.38 and a relative viability (KN-93 + AZD7762; first compound 8 µM) of 0.336.

NCI-H2085 gave a relative viability (KN-93 + Trametinib; first compound 0.08 µM) of 0.508, a relative viability (KN-93 + Trametinib; first compound 0.253 µM) of 0.506 and a relative viability (KN-93 + Trametinib; first compound 2.53 µM) of 0.575. It also gave a relative viability (KN-93 + Trametinib; first compound 8 µM) of 0.459, a relative viability (KN-93 + Palbociclib; first compound 0.08 µM) of 0.484 and a relative viability (KN-93 + Palbociclib; first compound 0.253 µM) of 0.427. For the same cell line, the relative viability (KN-93 + Palbociclib; first compound 2.53 µM) was 0.456, the relative viability (KN-93 + Palbociclib; first compound 8 µM) was 0.387 and the relative viability (KN-93 + Tozasertib; first compound 0.08 µM) was 0.667. It also gave a relative viability (KN-93 + Tozasertib; first compound 0.253 µM) of 0.662, a relative viability (KN-93 + Tozasertib; first compound 2.53 µM) of 0.873 and a relative viability (KN-93 + Tozasertib; first compound 8 µM) of 0.369. It also gave a relative viability (KN-93 + Dasatinib; first compound 0.08 µM) of 0.237, a relative viability (KN-93 + Dasatinib; first compound 0.253 µM) of 0.254 and a relative viability (KN-93 + Dasatinib; first compound 2.53 µM) of 0.231. The relative viability (KN-93 + Dasatinib; first compound 8 µM) was 0.268, the relative viability (KN-93 + AZD7762; first compound 0.08 µM) was 0.883 and the relative viability (KN-93 + AZD7762; first compound 0.253 µM) was 1.12. For the same cell line, the relative viability (KN-93 + AZD7762; first compound 2.53 µM) was 1.06 and the relative viability (KN-93 + AZD7762; first compound 8 µM) was 0.592.

With HCC-15 the relative viability (KN-93 + Trametinib; first compound 0.08 µM) was 0.359, the relative viability (KN-93 + Trametinib; first compound 0.253 µM) was 0.367 and the relative viability (KN-93 + Trametinib; first compound 2.53 µM) was 0.348. The relative viability (KN-93 + Trametinib; first compound 8 µM) was 0.306, the relative viability (KN-93 + Palbociclib; first compound 0.08 µM) was 0.671 and the relative viability (KN-93 + Palbociclib; first compound 0.253 µM) was 0.82. For the same cell line, the relative viability (KN-93 + Palbociclib; first compound 2.53 µM) was 0.735, the relative viability (KN-93 + Palbociclib; first compound 8 µM) was 0.513 and the relative viability (KN-93 + Tozasertib; first compound 0.08 µM) was 0.284. The relative viability (KN-93 + Tozasertib; first compound 0.253 µM) was 0.523, the relative viability (KN-93 + Tozasertib; first compound 2.53 µM) was 0.312 and the relative viability (KN-93 + Tozasertib; first compound 8 µM) was 0.101. It also gave a relative viability (KN-93 + Dasatinib; first compound 0.08 µM) of 0.59, a relative viability (KN-93 + Dasatinib; first compound 0.253 µM) of 0.535 and a relative viability (KN-93 + Dasatinib; first compound 2.53 µM) of 0.581. The relative viability (KN-93 + Dasatinib; first compound 8 µM) was 0.447, the relative viability (KN-93 + AZD7762; first compound 0.08 µM) was 1.18 and the relative viability (KN-93 + AZD7762; first compound 0.253 µM) was 1.24. For the same cell line, the relative viability (KN-93 + AZD7762; first compound 2.53 µM) was 1.38 and the relative viability (KN-93 + AZD7762; first compound 8 µM) was 1.
